Measurements: PMC12794274, “Therapeutic potential of Sheng-Xian-Tang in doxorubicin-induced chronic heart failure by regulation of phenylalanine metabolism disruption” (Chinese Medicine, 2026)
Read-outs that look alike come from different tables or passages of the source.

Experiments:
[1] = target: Phenylalanine hydroxylase (PAH) protein (Homo sapiens, UniProt P00439); experiment: Surface Plasmon Resonance (SPR) analysis, Biacore T200; type: binding; conditions: PAH immobilized on CM5 chip, read-out: dissociation constant (Kd)
Method: SPR assays were conducted using a Biacore T200 system (GE Healthcare Life Sciences, USA). Phenylalanine hydroxylase (PAH) protein was immobilized on CM5 sensor chips using an amine-coupling kit (BR100050, GE Healthcare) following standard procedures. […] Samples were injected over reference and PAH-immobilized flow cells at a flow rate of 30 μL/min, with 120 s contact time and 120 s dissociation time. Kinetic parameters were calculated using Biacore T200 evaluation software.

[2] = test system: PAH activity in AML12 cells; type: cell-based; conditions: BH4 10 μM; timosaponin B-II, neomangiferin, anemarrhenasaponin I 5, 10, 20 μM; timosaponin AIII 0.1, 0.2, 0.5 μM
Method: (§1) Serum biochemical parameters including brain natriuretic peptide (BNP), creatine kinase (CK), lactate dehydrogenase (LDH), alanine aminotransferase (ALT), and aspartate aminotransferase (AST) were measured using commercial ELISA kits (Nanjing Jiancheng Bioengineering Institute, Nanjing, China) according to the manufacturer’s instructions. Superoxide dismutase (SOD), and malondialdehyde (MDA) levels in liver and heart tissues were measured using assay kits from Aifang Biotechnology (Changsha, China). Phenylalanine and tyrosine concentrations in the cell were determined using an ELISA kit from Abmart (Shanghai, China).
(§2) Mouse hepatocellular cell lines (AML12), purchased from the Shanghai Cell Bank of Chinese Academy of Sciences (Shanghai, China), were cultured in Dulbecco’s Modified Eagle Medium (DMEM) supplemented with 10% fetal bovine serum (FBS) and 2 mM L-glutamine and 1% pyruvate and maintained at 37 °C in a […], 5% CO2 incubator. Cells were seeded at a density of 5 × 10^5 cells/well in 6-well plates. […] Cells’ survival rate was detected by Cell Counting Kit-8 (CCK8) Reagents (Thermo Scientific, Singapore).

AML12 cells = experiment: AML12 cell viability (CCK8); type: cell-based
Method: as §2

[3] = test system: phenylalanine hydroxylase (PAH); experiment: PAH expression in liver and heart (western blotting, immunofluorescence); type: in vivo, rat; conditions: experiment II; DOX vs CON, co-treatments vs DOX
Method: Immunofluorescence staining was performed on tissue sections to detect phenylalanine hydroxylase (PAH), prostaglandin-endoperoxide synthase 2 (PTGS2), and reactive oxygen species (ROS). Primary antibodies against PAH and PTGS2 were used, while ROS was detected using the DCFH-DA probe. Nuclei were counterstained with DAPI. Images were captured using a fluorescence microscope.
Protein was extracted from liver or heart tissue samples (30 mg) using lysis buffer. Total protein concentration was determined using a BCA protein assay kit (Thermo Fisher Scientific, USA). Equal amounts of protein from each sample were separated on 10–12% SDS-PAGE gels and transferred to PVDF membranes. Membranes were blocked with quick blocking buffer for 30 min, then incubated with anti-PAH primary antibody (1:1000 dilution) overnight at 4 °C. After washing, membranes were incubated with a secondary antibody for 1 h at 37 °C. Protein bands were visualized using an Odyssey infrared imaging system (JS-1070, Shanghai Peiqing Science & Technology Co., Ltd, China). Band intensities were quantified using ImageJ software.

heart tissues = experiment: Transmission electron microscopy of heart tissue; type: in vivo, rat; conditions: experiment II; DOX alone, co-treatments vs DOX
Method: Freshly excised heart tissues were immediately fixed in 2.5% glutaraldehyde at 4 °C overnight. After washing with 0.1 M cacodylate trihydrate buffer, samples were post-fixed with 1% osmium tetroxide for 1 h. Tissues were then dehydrated through a graded ethanol series, incubated in acetone, and embedded in epoxy resin. Ultrathin sections were mounted on copper grids and imaged using a Hitachi HT7800 transmission electron microscope (Tokyo, Japan).

[4] = test system: DOX-induced chronic heart failure (CHF) rat model; experiment: Echocardiography (LVEF%, LVFS%) in DOX-induced CHF rats; type: in vivo; conditions: experiment II, DOX + Phe 280 mg/kg, BH4 14 mg/kg or SXT 16 g/kg vs DOX group
Method: Experiment I, 48 rats were randomly divided into six groups: (1) the CON group; (2) the DOX group; (3) the DOX + enalapril (ENP, positive control, 1.8 mg/kg) group; (4) the DOX + SXT at low dose group (4 g/kg); (5) the DOX + SXT at middle dose group (8 g/kg); and […] the DOX + SXT at high dose group (16 g/kg). Except those rats in the CON group, the remaining rats received DOX at a 2.5 mg/kg per injection to a cumulative dose of 15 mg/kg. The dose of SXT for the low-dose group was set at 4 g/kg, based on the minimum human clinical daily dose (48.5 g, Table S2) converted to an equivalent rat dose using body surface area normalization (48.5 g/70 kg × 6.3 ≈ 4.4 g/kg, rounded to 4 g/kg). To evaluate a clear dose–response relationship, the medium and high doses were established at 8 g/kg and 16 g/kg, respectively, corresponding to 2 fold and 4 fold the low dose. This gradient dosing strategy is consistent with the Technical Guidelines for Pharmacodynamic Studies of Traditional Chinese Medicine and the Technical Guidelines for General Pharmacology Studies of Traditional Chinese Medicine and Natural Drugs, and is further supported by our previous study on the effective dose range of SXT in a rat model of doxorubicin-induced chronic heart failure. Heart function was monitored by echocardiography analysis at day 39, and the CHF model was considered to be successfully established when the left ventricular ejection fraction (LVEF%) values were reduced to 50%. Urinary samples were collected at five time points (0, 10, 20, 30, and 39 d), while fecal samples were collected before the rats were euthanized. Subsequently, the rats were anesthetized, and blood samples and heart and liver tissues were collected. All bio-samples were stored at − 80 °C until analysis.
Experiment II was conducted to specifically confirm the exacerbated cardiac abnormality of phenylalanine in the DOX-induced CHF rats. […] Heart function was detected as in the experiment I.
Echocardiographic (ECG) measurements were performed using M-mode tracings and continuous Doppler with a Vevo 2100 system (Visual Sonics, Toronto, ON, Canada). Rats were anesthetized with isoflurane prior to imaging. Cardiac function indices including left ventricular ejection fraction (LVEF%) and left ventricular fractional shortening (LVFS%) were measured and recorded.

DOX-induced CHF rats [5] = experiment: Oxidative stress in heart and liver tissue (SOD, MDA, ROS, PTGS2); type: in vivo, rat; conditions: experiment II, co-treatment with DOX
Method: Immunofluorescence staining was performed on tissue sections to detect phenylalanine hydroxylase (PAH), prostaglandin-endoperoxide synthase 2 (PTGS2), and reactive oxygen species (ROS). Primary antibodies against PAH and PTGS2 were used, while ROS was detected using the DCFH-DA probe. Nuclei were counterstained with DAPI. Images were captured using a fluorescence microscope. Serum biochemical parameters including brain natriuretic peptide (BNP), creatine kinase (CK), lactate dehydrogenase (LDH), alanine aminotransferase (ALT), and aspartate aminotransferase (AST) were measured using commercial ELISA kits (Nanjing Jiancheng Bioengineering Institute, Nanjing, China) according to the manufacturer's instructions. Superoxide dismutase (SOD), and malondialdehyde (MDA) levels in liver and heart tissues were measured using assay kits from […] Biotechnology (Changsha, China). Phenylalanine and tyrosine concentrations in the cell were determined using an ELISA kit from Abmart (Shanghai, China).

DOX-induced CHF rats [6] = experiment: Serum biochemical parameters (BNP, CK, LDH, ALT, AST) by ELISA kits; type: in vivo, rat; conditions: experiment II, co-treatment vs DOX group
Method: as §1, with “manufacturer's” for “manufacturer’s”, “Aifang” left out

[7] = test system: cardiac tissues of DOX-induced CHF rats; experiment: Heart histopathology (H&E, Masson) and TUNEL apoptosis detection; type: in vivo, rat; conditions: experiment II, co-treatment vs DOX group
Method: Cardiac tissues were fixed in 4% paraformaldehyde, embedded in paraffin, and sectioned at 4–5 μm thickness. Hematoxylin and eosin (H&E) staining was performed to assess histopathological changes, while Masson’s trichrome staining was used to evaluate cardiac fibrosis. Apoptosis in cardiac tissues was detected using a TUNEL assay kit (C1088, Beyotime, Shanghai, China).

phenylalanine metabolism = experiment: Phenylalanine and tyrosine levels in rat serum, liver and heart tissues (LC/MS); type: in vivo; conditions: experiment II, DOX + phenylalanine 280 mg/kg, BH4 14 mg/kg or SXT 16 g/kg
Method: Phenylalanine and tyrosine in the different rat bio-samples were analyzed by LC/MS using an Agilent 1290 Ultra high-performance liquid chromatography (UHPLC) and an Agilent 6460 triple-quadrupole tandem mass spectrometer (QQQ-MS) (Agilent Inc, USA). Data were acquired by using an Agilent Zorbax SB-C18 column (3.0 × 150 mm, 5 μm) as described previously.

Sequence of Phenylalanine hydroxylase (PAH) protein (P00439 whole entry): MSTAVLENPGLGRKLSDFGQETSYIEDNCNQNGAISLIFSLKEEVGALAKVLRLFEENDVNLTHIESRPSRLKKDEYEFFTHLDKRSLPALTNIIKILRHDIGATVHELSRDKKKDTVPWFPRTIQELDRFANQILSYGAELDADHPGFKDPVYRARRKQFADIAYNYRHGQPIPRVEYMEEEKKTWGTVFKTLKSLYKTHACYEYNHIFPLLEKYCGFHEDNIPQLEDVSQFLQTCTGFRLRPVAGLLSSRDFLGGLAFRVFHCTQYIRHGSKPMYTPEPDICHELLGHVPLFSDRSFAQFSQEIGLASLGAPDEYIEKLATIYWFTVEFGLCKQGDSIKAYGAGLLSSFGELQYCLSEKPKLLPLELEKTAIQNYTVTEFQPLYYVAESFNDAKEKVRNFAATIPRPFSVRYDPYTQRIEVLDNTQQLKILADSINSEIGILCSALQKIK

With `CC(C)CCC1(O)O[C@H]2[C@H](O)[C@H]3[C@@H]4CC[C@@H]5C[C@@H](O[C@@H]6O[C@H](CO)[C@H](O)[C@H](O)[C@H]6O[C@@H]6O[C@H](CO)[C@@H](O)[C@H](O)[C@H]6O)CC[C@]5(C)[C@H]4CC[C@]3(C)[C@H]2[C@@H]1C` (stereo partly shown) [Anemarrhenasaponin I] as the molecule, how does the Kd [1] read?
Its Kd is < 10 µM.

What about the “phenylalanine levels in AML12 cells increased by DOX” value [2] of the same molecule?
Its value is “significantly reduce”.

What about the non-cytoxic concentration (AML12 cells; AML12 cells) of the same molecule?
The non-cytoxic concentration was 5 to 20 µM.

For `CC(C)(O)[C@@H]1CC[C@](C)([C@H]2[C@@H](O)C[C@@]3(C)[C@@H]4C[C@H](O[C@@H]5O[C@H](CO)[C@@H](O)[C@H](O)[C@H]5O)[C@H]5C(C)(C)[C@@H](O[C@@H]6OC[C@@H](O)[C@H](O)[C@H]6O)CC[C@@]56C[C@@]46CC[C@]23C)O1` [Astragaloside IV], which non-cytoxic concentration (AML12 cells; AML12 cells) is on record?
Its non-cytoxic concentration is 5 to 20 µM.

`O=C(O)CCCCCCCC(=O)O` [Azelaic acid] was tested. Which non-cytoxic concentration (AML12 cells; mouse) did it give?
The non-cytoxic concentration was 5 to 20 µM.

Which Kd [1] does the source give for `C[C@H](O)[C@H](O)[C@H]1CNc2nc(N)[nH]c(=O)c2N1` [BH4, tetrahydrobiopterin] here?
Its Kd is 10.7 µM.

What about the “PAH expression in heart tissue” value [3] of the same molecule?
The value was “decreased”.

What about the “PAH expression in liver tissue” value [3] of the same molecule?
Its value is “increased”.

And the “phenylalanine levels in AML12 cells increased by DOX” value [2]?
Its value is “markedly decreased”.

What about the “mitochondrial ultrastructure of heart (electron microscopy)” value (heart tissues) of the same molecule?
Its value is “reversed”.

What about the “LVEF and LVFS / DOX-induced cardiac dysfunction” value [4] of the same molecule?
Its value is “partially alleviated”.

What about the non-cytoxic concentration (AML12 cells; mouse) of the same molecule?
Its non-cytoxic concentration is 5 to 20 µM.

What about the “ROS production and PTGS2 expression in the heart” value (DOX-induced CHF rats [5]) of the same molecule?
Its value is “effectively attenuated”.

And the “DOX-induced increases in serum levels of BNP, CK, LDH, ALT and AST” value (DOX-induced CHF rats [6])?
Its value is “significantly inhibited”.

And the “DOX-induced cardiac injury and collagen accumulation (H&E and Masson)” value [7]?
The value was “ameliorated”.

And the serum phenylalanine concentration (phenylalanine metabolism)?
The serum phenylalanine concentration was 46.9791 µM.

`COc1ccc(-c2coc3cc(O[C@@H]4O[C@H](CO)[C@@H](O)[C@H](O)[C@H]4O)ccc3c2=O)cc1O` [Calycosin-7-O-β-D-glucoside] was tested. Which non-cytoxic concentration (AML12 cells) did it give?
The non-cytoxic concentration was 5 to 20 µM.

For `COc1ccc(-c2coc3cc(O)ccc3c2=O)cc1O` [Calycosin], which non-cytoxic concentration (AML12 cells; AML12 cells) is on record?
The non-cytoxic concentration was 5 to 20 µM.

With `C[C@@H]1C[C@H]2O[C@@]3(O[C@@H]2C(C)(C)O)[C@H](O)[C@@]2(C)[C@@H]4CC[C@H]5C(C)(C)[C@@H](O[C@@H]6OC[C@@H](O)[C@H](O)[C@H]6O)CC[C@@]56C[C@@]46CC[C@]2(C)[C@@H]13` [Cimigenol xyloside] as the molecule, how does the non-cytoxic concentration (AML12 cells; AML12 cells) read?
Its non-cytoxic concentration is 5 to 20 µM.
